Consider 23 compounds from patent US8524902B2, “[1,2,4]triazolo[4,3-f]pteridines useful as inhibitors of protein kinases” (Vertex Pharmaceuticals Incorporated, priority 2006, dated 2013).

For this experiment, the target named is T1, Plk1 (Homo sapiens, UniProt P53350).
T1 construct: in the presence of 15 nM Plk1 (A20-K338)
Kind of experiment: Plk1 inhibition assay (radioactive-phosphate incorporation). The format is biochemical. As to conditions: Ki(app) from [γ-33P]ATP incorporation, 25° C. As for the experimental part: Compounds of the present invention may be evaluated as inhibitors of human PLK kinase using the following assays.
Compounds were screened for their ability to inhibit Plk1 using a radioactive-phosphate incorporation assay. Assays were carried out in a mixture of 25 mM HEPES (pH 7.5), 10 mM MgCl2, and 1 mM DTT. Final substrate concentrations were 50 μM [γ-33P]ATP (136 mCi 33P ATP/mmol ATP, Amersham Pharmacia Biotech/Sigma Chemicals) and 10 μM peptide (SAM68 protein Δ332-443). Assays were carried out at 25° C. in the presence of 15 nM Plk1 (A20-K338). An assay stock buffer solution was prepared containing all of the reagents listed above, with the exception of ATP and the test compound of interest. 30 μL of the stock solution was placed in a 96 well plate followed by addition of 2 μL of DMSO stock containing serial dilutions of the test compound (typically starting from a final concentration of 10 μM with 2-fold serial dilutions) in duplicate (final DMSO concentration 5%). The plate was pre-incubated for 10 minutes at 25° C. and the reaction initiated by addition of 8 μL [γ33P]ATP (final concentration 50 μM).
The reaction was stopped after 60 minutes by the addition of 100 μL 0.14M phosphoric acid. A multiscreen phosphocellulose filter 96-well plate (Millipore, Cat no. MAPHN0B50) was pretreated with 100 μL 0.2M phosphoric acid prior to the addition of 125 μL of the stopped assay mixture. The plate was washed with 4×200 μL 0.2M phosphoric acid. After drying, 100 μL Optiphase ‘SuperMix’ liquid scintillation cocktail (Perkin Elmer) was added to the well prior to scintillation counting (1450 Microbeta Liquid Scintillation Counter, Wallac).
After removing mean background values for all of the data points, Ki(app) data were calculated from non-linear regression analysis of the initial rate data using the Prism software package (GraphPad Prism version 3.0cx for Macintosh, GraphPad Software, San Diego Calif., USA).
Compounds were screened for their ability to inhibit Plk1 using a radioactive-phosphate incorporation assay. Assays were carried out in a mixture of 25 mM HEPES (pH 7.5), 10 mM MgCl2, 0.1% BSA, and 2 mM DTT. Final substrate concentrations were 150 μM (350 μM for determining values of <1 nM) [γ-33P]ATP (115 mCi 33P ATP/mmol ATP, Amersham Pharmacia Biotech/Sigma Chemicals) and 300 μM (450 μM for determining values of <1 nM) peptide (KKKISDELMDATFADQEAK) SEQ. ID NO. 1. Assays were carried out at 25° C. in the presence of 4 nM (1 nM for determining values of <1 nM) Plk1. An assay stock buffer solution was prepared containing all of the reagents listed above, with the exception of ATP and the test compound of interest. 30 μL of the stock solution was placed in a 96 well plate followed by addition of 2 μL of DMSO stock containing serial dilutions of the test compound (typically starting from a final concentration of 10 μM with 2-fold serial dilutions) in duplicate (final DMSO concentration 5%). The plate was pre-incubated for 10 minutes at 25° C. and the reaction initiated by addition of 8 μl [γ-33P]ATP (final concentration 150 μM (350 μM for determining values of <1 nM))).
The reaction was stopped after 90 minutes (240 minutes for determining values of <1 nM) by the addition of 100 μL 0.14M phosphoric acid. A multiscreen phosphocellulose filter 96-well plate (Millipore, Cat no. MAPHN0B50) was pretreated with 100 μL 0.2M phosphoric acid prior to the addition of 125 μL of the stopped assay mixture. The plate was washed with 4×200 μL 0.2M phosphoric acid. After drying, 100 μL Optiphase ‘SuperMix’ liquid scintillation cocktail (Perkin Elmer) was added to the well prior to scintillation counting (1450 Microbeta Liquid Scintillation Counter, Wallac).

T1 sequence (P53350 20-338): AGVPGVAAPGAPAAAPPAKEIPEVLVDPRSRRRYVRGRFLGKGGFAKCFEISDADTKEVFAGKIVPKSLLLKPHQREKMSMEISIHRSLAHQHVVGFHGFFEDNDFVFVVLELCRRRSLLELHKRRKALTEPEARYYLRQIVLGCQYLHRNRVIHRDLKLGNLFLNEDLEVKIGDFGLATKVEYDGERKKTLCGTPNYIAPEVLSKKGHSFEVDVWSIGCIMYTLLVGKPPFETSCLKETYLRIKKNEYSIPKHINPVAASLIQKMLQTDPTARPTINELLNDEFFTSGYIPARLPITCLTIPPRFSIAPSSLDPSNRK

Turning to `CC[C@@H]1c2nncn2-c2cnc(Nc3ccc(C(=O)N[C@@H]4CCOC4)cc3OC)nc2N1C1CCCC1` [Compound I-9, 4-((R)-5-cyclopentyl-4-ethyl-4,5-dihydro-[1,2,4]triazolo[4,3-f]pteridin-7-ylamino)-3-methoxy-N—((R)-tetrahydrofuran-3-yl)benzamide], the Ki is < 10 nM.

In the case of `CC[C@@H]1c2nncn2-c2cnc(Nc3ccncc3)nc2N1C1CCCC1` [Compound I-23, (R)-5-cyclopentyl-4-ethyl-N-(pyridin-4-yl)-4,5-dihydro-[1,2,4]triazolo[4,3-f]pteridin-7-amine], the Ki is < 10 nM. The result for `CC[C@@H]1c2nncn2-c2cnc(Nc3ccc(C(=O)NC4CC4)s3)nc2N1C1CCCC1` [Compound I-15, (R)-5-(5-cyclopentyl-4-ethyl-4,5-dihydro-[1,2,4]triazolo[4,3-f]pteridin-7-ylamino)-N-cyclopropylthiophene-2-carboxamide] reads < 10 nM; that for `CC[C@@H]1c2nncn2-c2cnc(Nc3ccc(C(F)(F)F)cc3F)nc2N1C1CCCC1` [Compound I-20, (R)-5-cyclopentyl-4-ethyl-N-(2-fluoro-4-(trifluoromethyl)phenyl)-4,5-dihydro-[1,2,4]triazolo[4,3-f]pteridin-7-amine], < 10 nM. The result for `CC[C@@H]1c2nnc(C)n2-c2cnc(Nc3ccc(C(=O)NC4CC4)cc3OC)nc2N1C1CCCC1` [Compound I-13, (R)-4-(5-cyclopentyl-4-ethyl-1-methyl-4,5-dihydro-[1,2,4]triazolo[4,3-f]pteridin-7-ylamino)-N-cyclopropyl-3-methoxybenzamide] reads < 10 nM; that for `CC[C@@H]1c2nncn2-c2cnc(Nc3ccc(C(F)(F)F)nc3)nc2N1C1CCCC1` [Compound I-40, (R)-5-cyclopentyl-4-ethyl-N-(6-(trifluoromethyl)pyridin-3-yl)-4,5-dihydro-[1,2,4]triazolo[4,3-f]pteridin-7-amine], 10 to 100 nM; that for `CC[C@@H]1c2nncn2-c2cnc(Nc3ccc(C(=O)NC)cc3C(F)(F)F)nc2N1C1CCCC1` [Compound I-21, (R)-4-(5-cyclopentyl-4-ethyl-4,5-dihydro-[1,2,4]triazolo[4,3-f]pteridin-7-ylamino)-N-methyl-3-(trifluoromethyl)benzamide], < 10 nM.

In the case of `CC[C@@H]1c2nncn2-c2cnc(Nc3ccc(C(=O)N(C)C)cc3C)nc2N1C1CCCC1` [Compound I-5, 4-((R)-5-cyclopentyl-4-ethyl-4,5-dihydro-[1,2,4]triazolo[4,3]pteridin-7-ylamino)-N,N,3-trimethylbenzamide], the Ki is < 10 nM. Regarding `CC[C@@H]1c2nncn2-c2cnc(Nc3ccc(N4CCN(C)CC4)cc3)nc2N1C1CCCC1` [Compound I-32, (R)-5-cyclopentyl-4-ethyl-N-(4-(4-methylpiperazin-1-yl)phenyl)-4,5-dihydro-[1,2,4]triazolo[4,3-f]pteridin-7-amine], the Ki is < 10 nM. To `CC[C@@H]1c2nncn2-c2cnc(Nc3ccc(OC(F)F)cc3)nc2N1C1CCCC1` [Compound I-33, (R)-5-cyclopentyl-N-(4-(difluoromethoxy)phenyl)-4-ethyl-4,5-dihydro-[1,2,4]triazolo[4,3-f]pteridin-7-amine] belongs < 10 nM; to `CC[C@@H]1c2nncn2-c2cnc(Nc3ccc(C(=O)NC4CCCC4)cc3OC)nc2N1C1CCCC1` [Compound I-10, (R)—N-cyclopentyl-4-(5-cyclopentyl-4-ethyl-4,5-dihydro-[1,2,4]triazolo[4,3-f]pteridin-7-ylamino)-3-methoxybenzamide], < 10 nM; to `CC[C@@H]1c2nncn2-c2cnc(Nc3ccc(N4CCCC4)cc3)nc2N1C1CCCC1` [Compound I-42, (R)-5-cyclopentyl-4-ethyl-N-(4-(pyrrolidin-1-yl)phenyl)-4,5-dihydro-[1,2,4]triazolo[4,3-f]pteridin-7-amine], < 10 nM. The result for `CC[C@@H]1c2nncn2-c2cnc(Nc3ccc(C(=O)NC4CCN(C)CC4)cc3OC)nc2N1C1CCCC1` [Compound I-2, 4-((R)-5-cyclopentyl-4-ethyl-4,5-dihydro-[1,2,4]triazolo[4,3-f]pteridin-7-ylamino)-3-methoxy-N-(1-methylpiperidin-4-yl)benzamide] reads < 10 nM; that for `CC[C@@H]1c2nncn2-c2cnc(Nc3ccc(C(=O)NC4CC4)cc3OC)nc2N1C1CCCC1` [Compound I-8, (R)-4-(5-cyclopentyl-4-ethyl-4,5-dihydro-[1,2,4]triazolo[4,3-f]pteridin-7-ylamino)-N-cyclopropyl-3-methoxybenzamide], < 10 nM. To `CCNC(=O)c1ccc(Nc2ncc3c(n2)N(C2CCCC2)[C@H](CC)c2nncn2-3)c(F)c1` [Compound I-19, (R)-4-(5-cyclopentyl-4-ethyl-4,5-dihydro-[1,2,4]triazolo[4,3-f]pteridin-7-ylamino)-N-ethyl-3-fluorobenzamide] belongs < 10 nM; to `CC[C@@H]1c2nncn2-c2cnc(Nc3ccc(C(=O)N4CC[C@H](F)C4)cc3OC)nc2N1C1CCCC1` [Compound I-12, (4-((R)-5-cyclopentyl-4-ethyl-4,5-dihydro-[1,2,4]triazolo[4,3-f]pteridin-7-ylamino)-3-methoxyphenyl)((S)-3-fluoropyrrolidin-1-yl)methanone], < 10 nM; to `CC[C@@H]1c2nncn2-c2cnc(Nc3ccc(C(=O)NC)cc3OC)nc2N1C1CCC1` [Compound I-29, (R)-4-(5-cyclobutyl-4-ethyl-4,5-dihydro-[1,2,4]triazolo[4,3-f]pteridin-7-ylamino)-3-methoxy-N-methylbenzamide], < 10 nM. As to `CC[C@@H]1c2nccn2-c2cnc(Nc3ccc(C(=O)NC)cc3OC)nc2N1C1CCCC1` [Compound I-7, 4-((R)-5-cyclopentyl-6-ethyl-5,6-dihydroimidazo[1,2)pteridin-3-ylamino)-3-methoxy-N-methylbenzamide], the Ki was < 10 nM.

In the case of `CC[C@@H]1c2nncn2-c2cnc(NCc3ccccc3)nc2N1C1CCCC1` [Compound I-31, (R)—N-benzyl-5-cyclopentyl-4-ethyl-4,5-dihydro-[1,2,4]triazolo[4,3-f]pteridin-7-amine], the Ki is 10 to 100 nM. To `CC[C@@H]1c2nncn2-c2cnc(Nc3ccc(F)cc3)nc2N1C1CCCC1` [Compound I-35, (R)-5-cyclopentyl-4-ethyl-N-(4-fluorophenyl)-4,5-dihydro-[1,2,4]triazolo[4,3-f]pteridin-7-amine] belongs < 10 nM; to `CC[C@@H]1c2nncn2-c2cnc(Nc3cccnc3)nc2N1C1CCCC1` [Compound I-25, (R)-5-cyclopentyl-4-ethyl-N-(pyridin-3-yl)-4,5-dihydro-[1,2,4]triazolo[4,3-f]pteridin-7-amine], < 10 nM. To `CC[C@@H]1c2nncn2-c2cnc(Nc3ccc(C(=O)NC4CC4)cc3F)nc2N1C1CCCC1` [Compound I-14, (R)-4-(5-cyclopentyl-4-ethyl-4,5-dihydro-[1,2,4]triazolo[4,3-f]pteridin-7-ylamino)-N-cyclopropyl-3-fluorobenzamide] belongs < 10 nM; to `CC[C@@H]1c2nncn2-c2cnc(Nc3ccc(-n4cccn4)cc3)nc2N1C1CCCC1` [Compound I-39, (R)—N-(4-(1H-pyrazol-1-yl)phenyl)-5-cyclopentyl-4-ethyl-4,5-dihydro-[1,2,4]triazolo[4,3-f]pteridin-7-amine], < 10 nM.
